Among the test systems are 786-0 renal; A498 renal; HCT-15 colon; MOLT-4 leukemia; OVCAR-3 ovarian; SF-295 CNS; U251 CNS; DU-145 prostate; MCF7 breast; NCI/ADR-RES ovarian.
What all share (assay): NCI tumour cell line growth inhibition, 48 h

TGI and GI50 data for 16 molecules are collected here from PubChem BioAssay (NCI).

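All cell lines were grown in 96-well plates and treated with compound for 48 hours. GI50: concentration for 50% inhibition of growth. TGI denotes the concentration required for complete inhibition of growth.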

With `COCCOCCOCCOc1cccc2c1C(=O)c1cccc(OCCOCCOCCOC)c1C2=O`, the TGI with 786-0 renal, in the assay with A498 renal, in the assay with HCT-15 colon, with MOLT-4 leukemia, with OVCAR-3 ovarian and in the assay with SF-295 CNS was more than 100 µM each time. Further, the TGI in the assay on U251 CNS is more than 100 µM.

As for `c1ccc(OCc2nnc3n2N=C(c2ccccc2)CS3)cc1`, the TGI in the assay on 786-0 renal, in the assay with A498 renal, in the assay with HCT-15 colon, in the assay on MOLT-4 leukemia, in the assay on OVCAR-3 ovarian and in the assay with SF-295 CNS was more than 100 µM each time. In addition, the TGI in the assay on U251 CNS is more than 100 µM.

Regarding `CC(=O)c1ccc(NC(=O)COC(=O)c2cccc3c(=O)c4ccccc4[nH]c23)cc1`, the TGI was more than 100 µM in the assay with 786-0 renal; more than 100 µM with A498 renal; more than 100 µM in the assay with MOLT-4 leukemia; 69.4 µM with OVCAR-3 ovarian; 49.2 µM with SF-295 CNS; 86.5 µM in the assay with U251 CNS.

For `COc1cccc(SSc2cccc(OC)c2C(=O)O)c1C(=O)O`, the TGI in the assay with 786-0 renal, in the assay with A498 renal, in the assay on HCT-15 colon, in the assay on MOLT-4 leukemia, in the assay with OVCAR-3 ovarian and with SF-295 CNS was more than 100 µM in each case. This molecule also came in with a TGI in the assay with U251 CNS of more than 100 µM.

On to `O=c1cccc(-c2cccc(=O)[nH]2)[nH]1`, for which the TGI in the assay on 786-0 renal, in the assay with HCT-15 colon, in the assay with MOLT-4 leukemia, in the assay with OVCAR-3 ovarian, with SF-295 CNS and in the assay on U251 CNS was more than 100 µM in each case.

As to `COc1cc2ccnc3c(=C(SC)SC)c(=O)c(c1OC)c23`, the TGI is 23.1 µM in the assay with 786-0 renal; 29.8 µM in the assay on HCT-15 colon; 23.8 µM with MOLT-4 leukemia; 28.4 µM with OVCAR-3 ovarian; more than 100 µM with SF-295 CNS; more than 100 µM in the assay on U251 CNS.

With `O=C1OC(=O)C2C3C=CC(C12)C1C2C=CC2C31` (stereo not drawn), the TGI in the assay on 786-0 renal, in the assay with A498 renal, in the assay on MOLT-4 leukemia, in the assay on SF-295 CNS and with U251 CNS was more than 100 µM in each case.

As for `CC1OC(CC(=O)O)CC2=C1C(=O)c1c(O)cccc1C2=O` (stereo not drawn), the TGI with 786-0 renal turned out to be 0.336 µM; with A498 renal, 2.36 µM; with DU-145 prostate it was 2.5 µM; in the assay on HCT-15 colon it was 0.183 µM; in the assay with MCF7 breast, 0.368 µM; in the assay with MOLT-4 leukemia it was 0.115 µM. Further, the TGI in the assay with OVCAR-3 ovarian was determined as 0.299 µM; with SF-295 CNS it was 2.51 µM; with U251 CNS it was 2.38 µM.

`CC1SC2(CCCCC2)N(NC(=O)c2[nH]c3ccc(Br)cc3c2-c2ccccc2)C1=O` (stereo not drawn): the GI50 with 786-0 renal is 17.5 µM; with A498 renal it was more than 100 µM; with DU-145 prostate, more than 100 µM; in the assay on HCT-15 colon it was more than 100 µM; with MCF7 breast it was 20.5 µM; in the assay on MOLT-4 leukemia it was 3.95 µM. The GI50 in the assay with OVCAR-3 ovarian is 3.24 µM; in the assay with SF-295 CNS, 10.7 µM; in the assay with U251 CNS, 41.3 µM. For the same molecule, the TGI in the assay on 786-0 renal is 98.4 µM; in the assay on A498 renal it was more than 100 µM; with DU-145 prostate it was more than 100 µM; with HCT-15 colon it was more than 100 µM; in the assay on MCF7 breast, more than 100 µM; in the assay on MOLT-4 leukemia, more than 100 µM. Also, the TGI is 20.9 µM in the assay with OVCAR-3 ovarian, 46.7 µM in the assay on SF-295 CNS and more than 100 µM with U251 CNS.

Consider `O=[N+]([O-])c1cc2no[n+]([O-])c2cc1N1CCCCC1`, for which the TGI with 786-0 renal was 2.62 µM; in the assay with A498 renal it was 35.2 µM; in the assay with DU-145 prostate, 6.18 µM; with HCT-15 colon it was 11.9 µM; with MOLT-4 leukemia, 4.95 µM; in the assay with NCI/ADR-RES ovarian it was more than 20.8 µM. Besides, the figures for the TGI in the assay on SF-295 CNS and in the assay with U251 CNS were 34.8 µM and 20.2 µM, respectively.

Turning to `CCCCCCCCCCCc1c(O)c(=O)c2c(oc3c(=O)c(CCCCCCCCCCC)c(O)c(=O)c3n2-c2ccc(N(C)C)cc2)c1=O`, the TGI with 786-0 renal was 33.9 µM; with A498 renal it was 36.9 µM; in the assay with HCT-15 colon, 35.6 µM; with MOLT-4 leukemia it was more than 100 µM; in the assay with OVCAR-3 ovarian it was 38.6 µM; in the assay on SF-295 CNS it was 46.2 µM. Besides, the TGI in the assay on U251 CNS turned out to be 44.1 µM.

For `COc1ccc(-c2csc(NC(=O)CN3CCN(c4cc5c(cc4F)c(=O)c(C(=O)O)cn5C4CC4)CC3)n2)cc1`, the GI50 in the assay with 786-0 renal was 3.6 µM; in the assay on DU-145 prostate, 3.35 µM; in the assay with HCT-15 colon it was 3.23 µM; in the assay on MCF7 breast it was 2.84 µM; in the assay on OVCAR-3 ovarian, 3.86 µM; in the assay with SF-295 CNS, 2.73 µM. Further, the GI50 in the assay with U251 CNS was 3.03 µM. Moreover, the TGI in the assay with 786-0 renal is 31.1 µM; in the assay with DU-145 prostate, more than 100 µM; in the assay on HCT-15 colon, more than 100 µM; in the assay with MCF7 breast, more than 100 µM; in the assay with OVCAR-3 ovarian, more than 100 µM; in the assay with SF-295 CNS, 15.9 µM. Besides, in the assay with U251 CNS, the TGI is 13.9 µM.

For the molecule `C=C(C(=C)P(=S)(C(C)C)C(C)C)P(=S)(C(C)C)C(C)C`, the TGI in the assay with 786-0 renal, in the assay with A498 renal, with HCT-15 colon, in the assay on MOLT-4 leukemia, in the assay with OVCAR-3 ovarian and with SF-295 CNS was more than 100 µM in each case. Also, the TGI with U251 CNS is more than 100 µM.

Turning to `CC(=O)NC(C=O)C(O[C@H](C)C(=O)NC(C)C(=O)NC(CCC(N)=O)C(=O)OCc1ccccc1)C(O)C(O)COC(=O)CCNc1c2ccccc2nc2cccc([N+](=O)[O-])c12` (stereo partly drawn), the TGI was 18.7 µM in the assay on 786-0 renal; more than 100 µM with A498 renal; 30 µM in the assay with HCT-15 colon; 14.8 µM in the assay on MOLT-4 leukemia; 4.01 µM in the assay with OVCAR-3 ovarian; 38.5 µM in the assay with SF-295 CNS. In the assay on U251 CNS, this molecule had a TGI of 7.14 µM.

Turning to `CC(=O)c1ccc(NC(=O)C(=O)C(C#N)CC(C)(C)C=O)cc1` (stereo not drawn), the TGI with 786-0 renal, in the assay with A498 renal, with HCT-15 colon, with MOLT-4 leukemia, with OVCAR-3 ovarian and in the assay on SF-295 CNS was more than 100 µM each time. In the assay with U251 CNS, this molecule showed a TGI of more than 100 µM.

For `COc1ccc(NC(=O)CC(=O)n2nc(C)c(N=Nc3ccccc3C(=O)O)c2C)cc1`, the TGI in the assay on 786-0 renal, in the assay on A498 renal, in the assay on HCT-15 colon, with MOLT-4 leukemia, with OVCAR-3 ovarian and in the assay on SF-295 CNS was more than 100 µM each time. For the same molecule, the TGI in the assay with U251 CNS is more than 100 µM.
